# Data as given in ChEMBL document CHEMBL1681718, “Hepatitis C NS5B polymerase inhibitors: functional equivalents for the benzothiadiazine moiety” (Bioorg Med Chem Lett, 2011).
# Tests used:
# Hepatitis C virus [1] = assay: Antiviral activity against HCV 1a isolate H77 infected in EN5-3 cells by SEAP reporter gene assay; type: functional, organism-based, Hepacivirus hominis; settings: genotype 1a H77, EN5-3
# [2] = Inhibition of HCV 1a H77 NS5B polymerase after 3 hrs by [3H]UTP incorporation assay; parameters: species or system Hepatitis C virus (isolate H77)
# Hepatitis C virus [3] = assay: Antiviral activity against HCV 1b N infected in EN5-3 cells by SEAP reporter gene assay; type: functional, organism-based, Hepacivirus hominis; settings: genotype 1b strain N
# [4] = Inhibition of HCV 1b BK NS5B polymerase after 3 hrs by [3H]UTP incorporation assay; parameters: species or system Hepatitis C virus (isolate BK)
SMILES,EC50 (Hepatitis C virus [1]),IC50 [2],EC50 (Hepatitis C virus [3]),IC50 [4]
CC(C)(C)CC[C@@]1(C)C(=O)/C(=C2/C=Cc3cc(NS(C)(=O)=O)ccc3N2)C(=O)c2ccccc21,82 nM,17 nM,22 nM,29 nM
CC(C)(C)CC[C@@]1(C)C(=O)/C(=C2/C=Cc3ccccc3N2)C(=O)c2ccccc21,–,1680 nM,–,5550 nM
CN(C)C(=O)C1=C/C(=C2\C(=O)c3ccccc3[C@@](C)(CCC(C)(C)C)C2=O)Nc2ccc(NS(C)(=O)=O)cc21,932 nM,72 nM,99 nM,238 nM
CNC(=O)C1=C/C(=C2\C(=O)c3ccccc3[C@@](C)(CCC(C)(C)C)C2=O)Nc2ccc(NS(C)(=O)=O)cc21,1040 nM,133 nM,245 nM,333 nM
CCOC(=O)C1=C/C(=C2\C(=O)c3ccccc3[C@@](C)(CCC(C)(C)C)C2=O)Nc2ccc(NS(C)(=O)=O)cc21,3080 nM,315 nM,660 nM,739 nM
CC(C)(C)CC[C@@]1(C)C(=O)/C(=C2/C=C(C=O)c3cc(NS(C)(=O)=O)ccc3N2)C(=O)c2ccccc21,1200 nM,15 nM,168 nM,25 nM
CC(C)(C)CC[C@@]1(C)C(=O)C(C2=NCc3cc(NS(C)(=O)=O)ccc3N2)=C(O)c2ccccc21,–,830 nM,–,4200 nM
CC(C)(C)CC[C@@]1(C)C(=O)C(C2=NS(=O)(=O)c3cc(NS(C)(=O)=O)ccc3N2)=C(O)c2ccccc21,4 nM,4 nM,2 nM,7 nM

# More lines, now with the values ahead:
EC50 (Hepatitis C virus [1]),IC50 [2],EC50 (Hepatitis C virus [3]),IC50 [4],SMILES
135 nM,32 nM,20 nM,52 nM,CC1=C/C(=C2\C(=O)c3ccccc3[C@@](C)(CCC(C)(C)C)C2=O)Nc2ccc(NS(C)(=O)=O)cc21
–,4300 nM,–,1020 nM,CC(C)CCC1=C/C(=C2\C(=O)c3ccccc3[C@@](C)(CCC(C)(C)C)C2=O)Nc2ccc(NS(C)(=O)=O)cc21
781 nM,12 nM,50 nM,56 nM,CC(C)(C)CC[C@@]1(C)C(=O)/C(=C2/C=C(CO)c3cc(NS(C)(=O)=O)ccc3N2)C(=O)c2ccccc21
3320 nM,3 nM,221 nM,5 nM,CC(C)(C)CC[C@@]1(C)C(=O)/C(=C2/C=C(C(=O)O)c3cc(NS(C)(=O)=O)ccc3N2)C(=O)c2ccccc21
